Several values for one entry are separate records, joined by “and”; a condition that tells them apart may be missing. Equal values may be shown once.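 Growth conditions: 96-well plates. Treatment: test compound, 48 hours, 5 concentrations. Analysis: linear interpolation between bracketing concentrations; unreached endpoints set to highest concentration. Here, GI50 denotes the concentration required for 50% inhibition of growth. TGI denotes the concentration required for complete inhibition of growth.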
Experiments:
Experiment in all cases: NCI tumour cell line growth inhibition, 48 h
[1] = tested on: A549 NSCLC
[2] = tested on: BT-549 breast
[3] = tested on: CCRF-CEM leukemia
[4] = tested on: HCT-116 colon
[5] = tested on: K-562 leukemia
[6] = tested on: KM12 colon
[7] = tested on: M14 melanoma
[8] = tested on: MOLT-4 leukemia
[9] = tested on: OVCAR-5 ovarian
[10] = tested on: SK-OV-3 ovarian

Row | Compound | TGI [1] | GI50 [2] | TGI [2] | TGI [3] | TGI [4] | GI50 [5] | TGI [6] | TGI [7] | TGI [8] | TGI [9] | TGI [10] | GI50 [1] | GI50 [3] | GI50 [4] | TGI [5] [µM] | GI50 [6] | GI50 [7] | GI50 [8] | GI50 [9] | GI50 [10]
1 | Cc1cc(O)c2c(c1)C(=O)C=CC2=O | 58 µM and 42.9 µM | 15.5 µM and 6.9 µM | 30.3 µM and 21 µM | 0.564 µM and 1.19 µM | 10.2 µM and > 20.2 µM | 0.322 µM and 1.25 µM | 32.9 µM and 32.5 µM | 25.7 µM and 21.7 µM | 1.71 µM and 1.61 µM | 43.1 µM and 34.4 µM | > 84.2 µM |  |  |  |  |  |  |  |  | 
2 | CC1(C)N=C(N)N=C(N)N1c1ccc(CCC(=O)Nc2ccc(S(=O)(=O)F)cc2)cc1 | > 100 µM | 12.6 µM | > 100 µM | > 100 µM | > 100 µM | 0.533 µM | > 100 µM | > 100 µM | > 100 µM | > 100 µM | > 100 µM | 2.87 µM | 0.73 µM | 0.425 µM | > 100 | 0.64 µM | 0.936 µM | 4.62 µM | 0.599 µM | > 70.2 µM
3 | N#CC1c2ccccc2C=CN1C(=O)CCCl (stereo not given) | 37.3 µM | 16.9 µM | 30.7 µM | 21.2 µM | 11.3 µM | 4.03 µM | 42.6 µM | 27.6 µM | 51.2 µM | 25.9 µM | 31.3 µM | 20.1 µM | 3.45 µM | 3.59 µM | 60 | 16.9 µM | 13.6 µM | 7.88 µM | 10.3 µM | 17.2 µM
4 | COc1cc(CNc2nc3cc(N)cc(N)c3nc2-c2ccccc2)cc(OC)c1 | > 100 µM | 9.7 µM | > 100 µM | 5.68 µM | 11.3 µM | 3.6 µM | 73.3 µM | 49.3 µM | > 100 µM | 29.2 µM | 54.2 µM | 33.2 µM | 1.72 µM | 3.08 µM | 9.23 | 4.28 µM | 10.1 µM | 3.02 µM | 5.9 µM | 15.1 µM
5 | CNC(=O)c1ncccc1Nc1nc(Nc2cc3c(cc2OC)CCCN3C(=O)CN(C)C)nc2[nH]ccc12 | 4.39 µM | 2.7 µM | 6.04 µM | 2.96 µM | 4.89 µM | 1.88 µM | 3.04 µM | 5.78 µM | 5.76 µM | 4.18 µM | 5.86 µM | 0.845 µM | 0.568 µM | 1.11 µM | 7.55 | 0.728 µM | 1.87 µM | 1.05 µM | 0.325 µM | 1.67 µM
6 | Cc1c(C(=N)C(C#N)C#N)c(=N)oc2c1ccc1ccccc12 | > 100 µM | 32.2 µM | > 100 µM | > 100 µM | > 100 µM | 19.4 µM | > 100 µM | > 100 µM | > 100 µM | > 100 µM | 63.3 µM | 32.9 µM | 13 µM | 17.6 µM | > 100 | 26.2 µM | 23.9 µM | 21.7 µM | 39.5 µM | 21.3 µM
7 | CCN1C(=S)N(CC)C2C1NC(=S)N2/N=C/C=C/c1ccccc1OC (stereo not given) | > 100 µM | 0.899 µM | 8.56 µM | > 100 µM | > 36.3 µM | 0.129 µM | 15.8 µM | 0.575 µM | > 54.7 µM | 35.6 µM | > 100 µM | 0.503 µM | 0.346 µM | 0.326 µM | > 72.1 | 0.27 µM | 0.179 µM | 0.464 µM | 0.442 µM | 0.505 µM
8 | CC(=O)ON1CCCC(P(=O)(OCOC(=O)C(C)(C)C)OCOC(=O)C(C)(C)C)C1=O (stereo not given) | 18.7 µM | 0.559 µM | 5.1 µM | 7.81 µM | 4.88 µM | 0.303 µM | 2.54 µM | 6.96 µM | 3.65 µM | 20.3 µM | 13.3 µM | 0.514 µM | 0.125 µM | 0.249 µM | > 87.2 | 0.51 µM | 1.04 µM | 0.511 µM | 1.94 µM | 0.923 µM
9 | CC1=C(C(=O)Nc2ccccc2)C(c2ccc(N(C)C)cc2)C(C(=O)Nc2ccccc2)=C(C)N1 | 98.9 µM |  | > 88.3 µM | 57.7 µM | > 57.3 µM |  | 27.2 µM | > 56 µM | > 96.6 µM | 99 µM | > 100 µM |  |  |  | > 69.1 |  |  |  |  | 
10 | Nc1nc2c(c3cnccc13)C(c1ccc(Cl)c(Cl)c1)Cc1cnccc1-2 (stereo not given) | 4.84 µM | 0.57 µM | 7.3 µM | 12.6 µM | 11.2 µM | 0.452 µM | 12.6 µM | 2.16 µM | 5.48 µM | 17 µM | 10.8 µM | 0.665 µM | 0.388 µM | 0.432 µM | 32.8 | 0.48 µM | 0.36 µM | 0.48 µM | 2.52 µM | 0.463 µM
11 | O=C1/C(=C\c2ccccc2)CN(C(=O)CCN2CCCCC2)C/C1=C/c1ccccc1 | 10.9 µM |  | 1.94 µM | 0.866 µM | 0.709 µM |  | 1.24 µM | 4.66 µM | 0.714 µM | 3.96 µM | 9.77 µM |  |  |  | 0.799 |  |  |  |  | 
12 | O=C1/C(=C/c2ccc(Cl)c(Cl)c2)CN(C(=O)CCN2CCC(=NO)CC2)C/C1=C\c1ccc(Cl)c(Cl)c1 | 6.47 µM | 0.829 µM | 1.84 µM | 1.73 µM | 0.778 µM | 0.191 µM | 1.14 µM | 2.23 µM | 2.26 µM | 2.74 µM | 3.48 µM | 2.15 µM | 0.292 µM | 0.267 µM |  | 0.368 µM | 0.782 µM | 0.458 µM | 1.13 µM | 1.85 µM
13 | Cc1nn(-c2ccc(Cl)cc2)c2ncnc(N/N=C/c3ccccc3O)c12 | 17.2 µM and 16 µM | 1.31 µM and 0.57 µM | 57.9 µM and > 100 µM | > 100 µM | 20.7 µM and > 43.3 µM | 1.01 µM and 0.435 µM | > 100 µM | 2.43 µM and 2.11 µM | > 100 µM | > 100 µM | 26.5 µM and 10.8 µM | 1.77 µM and 0.699 µM | 0.342 µM and 0.23 µM | 0.373 µM and 0.701 µM | > 100 | 0.53 µM and 0.385 µM | 0.523 µM and 0.34 µM | 0.518 µM and 0.326 µM | 4.16 µM and 2.34 µM | 0.615 µM and 0.427 µM

From PubChem BioAssay (NCI)
